Measured values published in article PMC6961116, “Scaffold-hopping identifies furano[2,3-d]pyrimidine amides as potent Notum inhibitors” (Bioorganic & Medicinal Chemistry Letters, 2020).
Where “and” joins values, the source holds several entries; their conditions need not be identical. Equal entries are not always repeated. Where two headings read alike, the source gives them in different places.

Tests used:
[1] = Metabolic stability in mouse liver microsomes (MLM); format: in vitro ADME
[2] = Mouse pharmacokinetics, single oral dose; format: in vivo; conditions: p.o. 10 mg/kg
Protocol: At this point, mouse pharmacokinetic data for 5l was generated in vivo to determine the extent of plasma exposure and to check the correlation of the in vitro ADME data with in vivo outcomes.
Animal Testing Declaration: In vivo mouse pharmacokinetic data was generated at GVK Biosciences, Hyderabad, India. GVK Biosciences is accredited by AAALAC and OLAW for the ethical treatment of animals. All the animal experiments are conducted in accordance with IAEC approved protocols. See: https://www.gvkbio.com/biology-services/in-vivo-pharmacology/

[3] = Aqueous solubility; format: physicochemical; conditions: read-out: Aq. solubility
[4] = Mouse plasma stability; format: in vitro ADME
From the text: However, the ER for 24 was perceived to be within acceptable limits based on established precedent.[22] [table]

[5] = target: T1, CYP1A2 (Homo sapiens, UniProt P05177); assay: CYP1A2 inhibition; format: in vitro ADME
T1 sequence (P05177 1-516): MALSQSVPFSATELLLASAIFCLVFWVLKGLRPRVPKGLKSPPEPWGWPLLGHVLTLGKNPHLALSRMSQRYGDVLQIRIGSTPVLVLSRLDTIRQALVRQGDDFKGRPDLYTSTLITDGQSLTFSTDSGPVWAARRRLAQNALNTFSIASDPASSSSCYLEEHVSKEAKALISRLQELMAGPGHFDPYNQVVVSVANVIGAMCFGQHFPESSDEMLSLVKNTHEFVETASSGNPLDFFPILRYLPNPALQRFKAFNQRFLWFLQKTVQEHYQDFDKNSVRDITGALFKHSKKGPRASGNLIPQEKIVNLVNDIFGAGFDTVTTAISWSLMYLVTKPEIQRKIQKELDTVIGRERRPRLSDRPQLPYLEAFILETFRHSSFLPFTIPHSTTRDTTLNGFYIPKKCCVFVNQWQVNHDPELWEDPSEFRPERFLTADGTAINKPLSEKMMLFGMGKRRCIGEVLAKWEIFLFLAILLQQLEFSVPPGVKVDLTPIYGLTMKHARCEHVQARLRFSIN

[6] = target: T2, CYP2B6 (Homo sapiens, UniProt P20813); assay: CYP2B6 inhibition; format: in vitro ADME
T2 sequence (P20813 1-491): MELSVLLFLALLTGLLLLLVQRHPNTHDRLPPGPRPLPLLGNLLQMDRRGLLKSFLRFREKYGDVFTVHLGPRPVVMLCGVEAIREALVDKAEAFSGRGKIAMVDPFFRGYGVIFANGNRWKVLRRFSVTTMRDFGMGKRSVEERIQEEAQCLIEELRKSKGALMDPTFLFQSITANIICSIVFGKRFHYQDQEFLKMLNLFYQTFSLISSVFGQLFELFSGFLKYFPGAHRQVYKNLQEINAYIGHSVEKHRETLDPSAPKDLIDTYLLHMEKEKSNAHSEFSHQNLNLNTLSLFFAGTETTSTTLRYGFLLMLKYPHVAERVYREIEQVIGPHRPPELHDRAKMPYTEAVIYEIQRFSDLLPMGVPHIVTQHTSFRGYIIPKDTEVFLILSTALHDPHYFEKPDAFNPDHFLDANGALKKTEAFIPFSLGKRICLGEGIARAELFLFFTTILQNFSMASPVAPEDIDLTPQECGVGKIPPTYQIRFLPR

[7] = target: CYP2C9 (Homo sapiens, UniProt P11712); assay: CYP2C9 inhibition; format: in vitro ADME
[8] = target: CYP2D6 (Homo sapiens, UniProt P10635); assay: CYP2D6 inhibition; format: in vitro ADME
[9] = target: CYP3A4 (Homo sapiens, UniProt P08684); assay: CYP3A4 inhibition; format: in vitro ADME
[10] = target: T3, Notum(81–451 Cys330Ser) (Homo sapiens, UniProt Q6P988, C330S); assay: Notum biochemical OPTS assay (carboxylesterase activity); conditions: OPTS substrate, 1 h incubation; geometric mean ± s.d.
T3 sequence (Q6P988 81-451 C330S): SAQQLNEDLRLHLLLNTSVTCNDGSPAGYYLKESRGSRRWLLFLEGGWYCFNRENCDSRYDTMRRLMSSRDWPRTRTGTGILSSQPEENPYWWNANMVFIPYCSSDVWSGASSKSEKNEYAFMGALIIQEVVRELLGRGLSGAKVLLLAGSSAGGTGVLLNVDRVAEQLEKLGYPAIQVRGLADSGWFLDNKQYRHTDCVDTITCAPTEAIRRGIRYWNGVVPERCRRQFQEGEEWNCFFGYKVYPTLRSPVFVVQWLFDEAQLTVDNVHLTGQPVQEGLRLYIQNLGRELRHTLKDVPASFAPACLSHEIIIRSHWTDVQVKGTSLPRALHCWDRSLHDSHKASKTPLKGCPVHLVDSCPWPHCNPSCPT

[11] = test system: P-gp (MDR1); assay: MDCK-MDR1 cell permeability and efflux; format: in vitro ADME; conditions: dog
[12] = LogD7.4; format: physicochemical; conditions: pH 7.4
[13] = Hydrolytic stability in citrate buffer; format: physicochemical; conditions: citrate buffer 0.1 M, pH 4, up to 24 h, UPLC-MS
[14] = target: T4, Notum (Homo sapiens, UniProt Q6P988, C330S); assay: Notum enzymatic stability (biochemical assay without OPTS substrate); conditions: up to 72 h
T4 sequence (Q6P988 81-451 C330S): T3 sequence (Q6P988 81-451 C330S)

[15] = mouse liver microsomes; amides 4; cited from earlier work
[16] = test system: MDCK-MDR1 monolayer; conditions: amides 4, cited from earlier work
[17] = C57BL/6, mouse, po, brain, male C57BL6 mice
[18] = C57BL/6, mouse, po, plasma, male C57BL6 mice

Chain of CYP2C9 (P11712 whole entry): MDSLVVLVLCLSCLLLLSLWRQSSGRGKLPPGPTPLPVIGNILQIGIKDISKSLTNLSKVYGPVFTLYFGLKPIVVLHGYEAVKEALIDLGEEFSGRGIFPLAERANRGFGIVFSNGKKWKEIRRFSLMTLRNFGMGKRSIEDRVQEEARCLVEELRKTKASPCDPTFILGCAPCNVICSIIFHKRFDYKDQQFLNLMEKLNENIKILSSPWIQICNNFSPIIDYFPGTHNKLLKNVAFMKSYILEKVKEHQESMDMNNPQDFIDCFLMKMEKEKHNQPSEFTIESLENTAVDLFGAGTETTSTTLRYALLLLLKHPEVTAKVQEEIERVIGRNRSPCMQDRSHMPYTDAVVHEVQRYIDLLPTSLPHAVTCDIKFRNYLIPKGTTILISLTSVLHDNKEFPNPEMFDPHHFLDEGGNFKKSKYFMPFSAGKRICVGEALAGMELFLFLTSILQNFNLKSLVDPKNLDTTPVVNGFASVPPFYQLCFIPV
Chain of CYP3A4 (P08684 whole entry): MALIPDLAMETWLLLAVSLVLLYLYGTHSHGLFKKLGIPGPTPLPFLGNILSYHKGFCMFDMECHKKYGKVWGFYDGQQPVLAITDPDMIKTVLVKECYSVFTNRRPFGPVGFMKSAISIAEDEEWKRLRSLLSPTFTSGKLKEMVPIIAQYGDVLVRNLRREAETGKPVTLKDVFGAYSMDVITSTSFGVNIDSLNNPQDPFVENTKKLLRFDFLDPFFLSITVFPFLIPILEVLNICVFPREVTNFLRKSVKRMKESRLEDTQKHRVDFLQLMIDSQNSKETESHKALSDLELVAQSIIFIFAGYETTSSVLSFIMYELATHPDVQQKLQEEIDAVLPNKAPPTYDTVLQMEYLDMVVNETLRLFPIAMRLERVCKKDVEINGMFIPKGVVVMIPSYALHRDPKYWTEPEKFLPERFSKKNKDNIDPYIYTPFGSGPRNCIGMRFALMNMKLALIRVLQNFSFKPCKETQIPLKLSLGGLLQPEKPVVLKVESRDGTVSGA
Chain of CYP2D6 (P10635 whole entry): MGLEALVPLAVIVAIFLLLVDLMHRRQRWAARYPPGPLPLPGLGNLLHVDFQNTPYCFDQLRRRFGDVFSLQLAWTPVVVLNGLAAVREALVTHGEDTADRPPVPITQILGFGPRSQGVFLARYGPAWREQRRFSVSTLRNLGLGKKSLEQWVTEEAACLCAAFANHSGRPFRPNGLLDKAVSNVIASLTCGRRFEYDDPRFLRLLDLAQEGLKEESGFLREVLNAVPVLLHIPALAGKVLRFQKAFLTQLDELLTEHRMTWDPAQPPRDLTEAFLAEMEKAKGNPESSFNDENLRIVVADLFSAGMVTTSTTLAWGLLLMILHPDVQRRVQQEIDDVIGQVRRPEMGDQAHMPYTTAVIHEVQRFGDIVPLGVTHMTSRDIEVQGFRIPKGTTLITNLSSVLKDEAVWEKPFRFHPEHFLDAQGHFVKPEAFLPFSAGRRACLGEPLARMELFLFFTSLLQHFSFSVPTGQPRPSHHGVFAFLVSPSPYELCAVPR

**Q.** With `Cc1c(C(F)(F)F)oc2ncnc(SCC(=O)N3CC(=O)N(C)C3)c12` [Compound 24, 3-Methyl-1-(2-((5-methyl-6-(trifluoromethyl)furo[2,3-d]pyrimidinyl-4-yl)thio)acetyl)imidazolin-4-one] as the compound, how does the “MLM Cli” value ([1]; Table 5) read?
**A.** 6.9 μL/min/mg protein

**Q.** What about the “MLM Cli” value ([1]; mouse liver microsomes) of the same compound?
**A.** 6.9 µL/min/mg

**Q.** And the “Metabolic stability in MLM (in words)” value ([1]; mouse liver microsomes)?
**A.** high metabolic stability

**Q.** What about the Cmax at 24 h [2, 17] of the same compound?
**A.** 1210 ng/g

**Q.** What about the Tmax [2, 17] of the same compound?
**A.** 30 min

**Q.** And the AUC(0-inf) at 24 h [2, 18]?
**A.** 5490 ng·h/mL

**Q.** And the AUC(0-t) at 24 h [2, 18]?
**A.** 5390 ng·h/mL

**Q.** And the Cmax at 24 h [2, 18]?
**A.** 3850 ng/mL

**Q.** What about the Tmax [2, 18] of the same compound?
**A.** 30 min

**Q.** And the “AUC(0-inf)” value ([2]; brain, male C57BL6 mice)?
**A.** 1610 ng·h/g

**Q.** And the “AUC(0-t)” value ([2]; brain, male C57BL6 mice)?
**A.** 1550 ng·h/g

**Q.** And the “Cmax[brain] (free drug)” value ([2]; mouse, free drug)?
**A.** ≈ 0.5 μM

**Q.** And the “Cmax[plasma] (free drug)” value ([2]; mouse, free drug)?
**A.** ≈ 2.2 μM

**Q.** And the solubility [3]?
**A.** 45 µg/mL and 120 µM

**Q.** And the “Mouse plasma stability (in words)” value ([4]; after 120 min)?
**A.** no degradation observed

**Q.** What about the remaining at 2 h ([4]; mouse, plasma, 120 min) of the same compound?
**A.** 110%

**Q.** And the IC50 [5]?
**A.** > 30 µM

**Q.** And the IC50 [6]?
**A.** > 30 µM

**Q.** And the IC50 [7]?
**A.** > 30 µM

**Q.** What about the IC50 [8] of the same compound?
**A.** > 30 µM

**Q.** What about the IC50 [9] of the same compound?
**A.** > 30 µM

**Q.** Which IC50 [10] does the source give for `Cc1sc2ncnc(SCC(=O)N3CC(=O)N(C)C3)c2c1Cl` [Compound 5l] here?
**A.** 0.0024 ± 0.0004 µM

**Q.** And the Papp ([11]; MDCK-MDR1, A to B direction, read-out: MDCK-MDR1 AB Papp)?
**A.** 36 ×10⁻⁶ cm/s

**Q.** What about the Papp ([11]; MDCK-MDR1, B to A direction, read-out: MDCK-MDR1 BA Papp) of the same compound?
**A.** 42 ×10⁻⁶ cm/s

**Q.** And the Cmax [2, 18]?
**A.** 120 ng/mL

**Q.** What about the AUC(0-inf) ([2]; C57BL/6, mouse, po, plasma, male C57BL6 mice, read-out: AUC(0-inf)) of the same compound?
**A.** 70 ng·h/mL

**Q.** What about the solubility [3] of the same compound?
**A.** 77 µg/mL and 215 µM

**Q.** And the logD [12]?
**A.** 1.8

**Q.** What about the Hydrolytic stability [13] of the same compound?
**A.** only parent was detected

**Q.** And the Notum enzymatic stability [14]?
**A.** only parent was detected

**Q.** For `O=C(CSc1ncnc2c(C3CC3)c(Cl)sc12)N1CCOCC1` [Compound 4c], which “MLM Cli” value [15] is on record?
**A.** >500 µL/min/mg

**Q.** What about the “MDCK-MDR1 AB Papp” value ([16]; A to B direction) of the same compound?
**A.** 40 ×10⁻⁶ cm/s

**Q.** What about the “MDCK-MDR1 BA Papp” value ([16]; B to A direction) of the same compound?
**A.** 38 ×10⁻⁶ cm/s
